Reference: ChEMBL document CHEMBL1909046, “DrugMatrix in vitro pharmacology data”

Tests used:
[1] = molecular target: Beta-1 adrenergic receptor (Homo sapiens, UniProt P08588); test: DRUGMATRIX: Adrenergic beta1 radioligand binding (ligand: [125I] Cyanopindolol); assay type: cell membranes, CHO-K1, Membrane; conditions: cho-k1; Not Active = under 50% inhibition at 10 µM
Calcitonin receptor = molecular target: T1, Calcitonin receptor (Homo sapiens, UniProt P30988); assay type: cell membranes, Membrane; conditions: t47d; note: in other assays of this panel Not Active means under 50% inhibition at 10 µM
T1 sequence (P30988 whole entry): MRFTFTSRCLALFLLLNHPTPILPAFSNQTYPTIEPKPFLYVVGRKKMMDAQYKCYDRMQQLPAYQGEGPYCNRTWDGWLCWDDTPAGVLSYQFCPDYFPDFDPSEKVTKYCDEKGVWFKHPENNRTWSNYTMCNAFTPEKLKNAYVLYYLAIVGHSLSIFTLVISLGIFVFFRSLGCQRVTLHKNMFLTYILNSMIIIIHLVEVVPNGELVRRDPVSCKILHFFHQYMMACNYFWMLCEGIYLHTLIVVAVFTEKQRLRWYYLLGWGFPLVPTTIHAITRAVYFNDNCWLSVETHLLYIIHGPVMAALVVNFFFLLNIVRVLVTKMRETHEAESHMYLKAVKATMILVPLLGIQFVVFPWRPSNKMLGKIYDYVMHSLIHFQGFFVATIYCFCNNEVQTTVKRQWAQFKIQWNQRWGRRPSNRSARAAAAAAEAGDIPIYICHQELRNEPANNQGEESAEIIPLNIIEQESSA

[2] = DRUGMATRIX: Calcium Channel Type L, Dihydropyridine radioligand binding (ligand: [3H] Nitrendipine); assay type: cell membranes, Rattus norvegicus, Wistar, Cerebral cortex, Membrane; conditions: Not Active = under 50% inhibition at 10 µM
Vasopressin V1a receptor = Vasopressin V1a receptor (Homo sapiens, UniProt P37288); assay type: cell membranes, Membrane; conditions: hek293; note: in other assays of this panel Not Active means under 50% inhibition at 10 µM
[3] = molecular target: T2, C-C chemokine receptor type 4 (Homo sapiens, UniProt P51679); assay type: cell membranes, Chem-1, Membrane; note: in other assays of this panel Not Active means under 50% inhibition at 10 µM
T2 sequence (P51679 whole entry): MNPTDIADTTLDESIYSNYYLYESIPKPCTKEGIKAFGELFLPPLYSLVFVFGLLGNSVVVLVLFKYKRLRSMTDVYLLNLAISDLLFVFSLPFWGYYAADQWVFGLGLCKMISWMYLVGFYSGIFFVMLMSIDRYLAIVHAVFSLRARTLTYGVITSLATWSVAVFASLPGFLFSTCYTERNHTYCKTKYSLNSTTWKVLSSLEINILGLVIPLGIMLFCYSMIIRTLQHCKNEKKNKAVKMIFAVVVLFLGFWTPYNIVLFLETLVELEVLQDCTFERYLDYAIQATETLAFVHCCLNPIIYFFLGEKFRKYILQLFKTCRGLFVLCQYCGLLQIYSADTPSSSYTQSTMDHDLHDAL

[4] = molecular target: Receptor tyrosine-protein kinase erbB-2 (Homo sapiens, UniProt P04626); test: biochemical; assay type: cell-based, Insect cells;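 note: inhibition of HER2 kinase enzyme activity, measured with Poly(Glu:Tyr) as the phosphorylation substrate; in other assays of this panel Not Active means under 50% inhibition at 10 µM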
Receptor tyrosine-protein kinase erbB-2, sequence (P04626 whole entry): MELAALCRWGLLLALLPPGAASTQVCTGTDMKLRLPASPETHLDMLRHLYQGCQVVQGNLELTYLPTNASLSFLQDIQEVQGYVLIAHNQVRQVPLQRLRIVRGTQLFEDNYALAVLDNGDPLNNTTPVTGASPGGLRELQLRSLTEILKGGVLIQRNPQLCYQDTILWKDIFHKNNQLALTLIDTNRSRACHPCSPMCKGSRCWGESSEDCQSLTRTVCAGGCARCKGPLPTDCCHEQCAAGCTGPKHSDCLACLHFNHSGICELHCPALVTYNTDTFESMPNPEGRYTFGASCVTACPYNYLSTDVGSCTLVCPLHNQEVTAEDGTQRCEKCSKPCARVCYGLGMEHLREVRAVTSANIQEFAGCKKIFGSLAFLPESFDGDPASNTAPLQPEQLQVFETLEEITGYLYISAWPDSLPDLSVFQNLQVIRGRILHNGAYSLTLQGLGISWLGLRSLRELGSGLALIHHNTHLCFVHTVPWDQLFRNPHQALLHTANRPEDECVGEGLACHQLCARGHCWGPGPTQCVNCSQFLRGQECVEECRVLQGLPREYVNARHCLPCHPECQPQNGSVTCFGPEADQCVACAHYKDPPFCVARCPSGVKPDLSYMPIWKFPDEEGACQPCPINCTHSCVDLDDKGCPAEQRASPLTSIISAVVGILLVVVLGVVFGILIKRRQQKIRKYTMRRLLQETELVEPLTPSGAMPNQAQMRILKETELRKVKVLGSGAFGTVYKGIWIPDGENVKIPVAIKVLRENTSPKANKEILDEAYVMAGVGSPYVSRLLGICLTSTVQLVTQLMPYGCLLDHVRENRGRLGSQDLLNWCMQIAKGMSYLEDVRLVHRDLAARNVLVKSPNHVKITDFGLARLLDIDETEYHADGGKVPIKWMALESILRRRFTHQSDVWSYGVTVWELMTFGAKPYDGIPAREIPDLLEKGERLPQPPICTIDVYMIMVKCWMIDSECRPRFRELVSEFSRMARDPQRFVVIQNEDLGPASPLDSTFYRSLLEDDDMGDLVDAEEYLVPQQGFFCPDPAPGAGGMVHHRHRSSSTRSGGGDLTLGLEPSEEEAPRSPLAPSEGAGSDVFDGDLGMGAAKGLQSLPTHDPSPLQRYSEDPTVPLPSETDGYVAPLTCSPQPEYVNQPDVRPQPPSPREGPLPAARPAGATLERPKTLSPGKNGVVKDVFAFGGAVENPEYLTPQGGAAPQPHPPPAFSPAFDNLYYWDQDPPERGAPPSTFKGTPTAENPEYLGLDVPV

Beta-1 adrenergic receptor, sequence (P08588 whole entry): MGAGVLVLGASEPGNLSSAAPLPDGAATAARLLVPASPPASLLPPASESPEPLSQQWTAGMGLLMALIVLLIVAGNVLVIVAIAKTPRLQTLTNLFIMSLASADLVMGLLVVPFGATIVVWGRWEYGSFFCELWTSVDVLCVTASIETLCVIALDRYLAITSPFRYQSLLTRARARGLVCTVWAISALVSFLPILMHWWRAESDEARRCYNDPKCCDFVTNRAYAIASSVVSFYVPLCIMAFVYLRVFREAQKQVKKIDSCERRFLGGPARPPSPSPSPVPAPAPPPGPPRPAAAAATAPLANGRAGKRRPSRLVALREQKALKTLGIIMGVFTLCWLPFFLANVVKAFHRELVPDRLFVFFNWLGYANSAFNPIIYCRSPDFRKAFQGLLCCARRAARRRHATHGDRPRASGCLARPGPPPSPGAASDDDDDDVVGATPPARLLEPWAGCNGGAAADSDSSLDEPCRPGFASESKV
Vasopressin V1a receptor, sequence (P37288 whole entry): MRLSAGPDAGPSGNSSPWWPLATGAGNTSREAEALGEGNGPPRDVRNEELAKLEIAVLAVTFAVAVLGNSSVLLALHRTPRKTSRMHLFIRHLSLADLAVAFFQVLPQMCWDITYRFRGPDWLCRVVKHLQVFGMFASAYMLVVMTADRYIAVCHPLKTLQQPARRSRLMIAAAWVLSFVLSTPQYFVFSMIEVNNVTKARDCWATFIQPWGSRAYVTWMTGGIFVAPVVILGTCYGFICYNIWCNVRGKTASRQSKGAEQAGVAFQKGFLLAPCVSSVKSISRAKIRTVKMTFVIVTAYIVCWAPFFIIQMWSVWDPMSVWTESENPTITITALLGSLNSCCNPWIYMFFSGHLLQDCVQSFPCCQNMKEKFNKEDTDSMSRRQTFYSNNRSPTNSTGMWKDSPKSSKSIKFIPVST

N[C@@H](Cc1ccc(N(CCCl)CCCl)cc1)C(=O)O
IC50 [1]: Not Active
IC50 (Calcitonin receptor): Not Active
IC50 [2]: Not Active
Ki [2]: Not Active
IC50 (Vasopressin V1a receptor): Not Active
IC50 ([3]; chem-1): Not Active
IC50 ([4]; insect cells): Not Active

CC(C)N1CCN(c2ccc(OCC3COC(Cn4cncn4)(c4ccc(Cl)cc4Cl)O3)cc2)CC1 (stereo not drawn) [TERCONAZOLE]
IC50 (Calcitonin receptor): Not Active
IC50 [2]: Not Active
Ki [2]: Not Active
IC50 (Vasopressin V1a receptor): Not Active
IC50 ([3]; chem-1): Not Active
IC50 ([4]; insect cells): Not Active

Cc1nc2n(c(=O)c1CCN1CCC(c3noc4cc(F)ccc34)CC1)CCCC2 [RISPERIDONE]
IC50 [1]: Not Active
IC50 (Calcitonin receptor): Not Active
IC50 (Vasopressin V1a receptor): Not Active
IC50 ([3]; chem-1): Not Active
IC50 ([4]; insect cells): Not Active

N[C@@H]1[C@H]2CN(c3nc4c(cc3F)c(=O)c(C(=O)O)cn4-c3ccc(F)cc3F)C[C@@H]12 [TROVAFLOXACIN]
IC50 [1]: Not Active
IC50 (Calcitonin receptor): Not Active
IC50 [2]: Not Active
Ki [2]: Not Active
IC50 (Vasopressin V1a receptor): Not Active
IC50 ([3]; chem-1): Not Active
IC50 ([4]; insect cells): Not Active

O=c1ncn2nc(Sc3ccc(F)cc3F)ccc2c1-c1c(Cl)cccc1Cl [NEFLAMAPIMOD]
IC50 [1]: Not Active
IC50 (Calcitonin receptor): Not Active
IC50 ([2]; read-out: IC50): 38.9 µM
Ki ([2]; read-out: Ki): 25 µM
IC50 (Vasopressin V1a receptor): Not Active
IC50 ([3]; chem-1): Not Active
IC50 ([4]; insect cells): Not Active

CCCCc1oc2ccccc2c1C(=O)c1cc(I)c(OCCN(CC)CC)c(I)c1 [AMIODARONE]
IC50 (Calcitonin receptor): Not Active
IC50 (Vasopressin V1a receptor): Not Active
IC50 ([3]; read-out: IC50): 21.8 µM
Ki ([3]; read-out: Ki): 11.4 µM
IC50 ([4]; read-out: IC50): 9.15 µM

CC[C@]1(O)C[C@H]2CN(CCc3c([nH]c4ccccc34)[C@@](C(=O)OC)(c3cc4c(cc3OC)N(C=O)[C@H]3[C@@](O)(C(=O)OC)[C@H](OC(C)=O)[C@]5(CC)C=CCN6CC[C@]43[C@@H]65)C2)C1 [VINCRISTINE]
IC50 [1]: Not Active
IC50 (Calcitonin receptor): Not Active
IC50 [2]: Not Active
Ki [2]: Not Active
IC50 (Vasopressin V1a receptor): Not Active
IC50 ([3]; chem-1): Not Active
IC50 ([4]; insect cells): Not Active

CO[C@H]1/C=C/O[C@@]2(C)Oc3c(C)c(O)c4c(O)c(c(/C=N/N5CCN(C)CC5)c(O)c4c3C2=O)NC(=O)/C(C)=C\C=C\[C@H](C)[C@H](O)[C@@H](C)[C@@H](O)[C@@H](C)[C@H](OC(C)=O)[C@@H]1C [RIFAMPIN]
IC50 [1]: Not Active
IC50 (Calcitonin receptor): Not Active
IC50 [2]: Not Active
Ki [2]: Not Active
IC50 (Vasopressin V1a receptor): Not Active
IC50 ([3]; chem-1): Not Active
IC50 ([4]; insect cells): Not Active

Cc1noc(NS(=O)(=O)c2ccc(N)cc2)c1C [SULFISOXAZOLE]
IC50 [1]: Not Active
IC50 (Calcitonin receptor): Not Active
IC50 [2]: Not Active
Ki [2]: Not Active
IC50 (Vasopressin V1a receptor): Not Active
IC50 ([3]; chem-1): Not Active
IC50 ([4]; insect cells): Not Active

NS(=O)(=O)c1cc2c(cc1Cl)NC(C(Cl)Cl)NS2(=O)=O (stereo not drawn) [TRICHLORMETHIAZIDE]
IC50 [1]: Not Active
IC50 (Calcitonin receptor): Not Active
IC50 [2]: Not Active
Ki [2]: Not Active
IC50 (Vasopressin V1a receptor): Not Active
IC50 ([3]; chem-1): Not Active
IC50 ([4]; insect cells): Not Active

COc1nc(C)nc(Cl)c1NC1=NCCN1 [MOXONIDINE]
IC50 [1]: Not Active
IC50 (Calcitonin receptor): Not Active
IC50 [2]: Not Active
Ki [2]: Not Active
IC50 (Vasopressin V1a receptor): Not Active
IC50 ([3]; chem-1): Not Active
IC50 ([4]; insect cells): Not Active

Nc1nc2ccc(OC(F)(F)F)cc2s1 [RILUZOLE]
IC50 [1]: Not Active
IC50 (Calcitonin receptor): Not Active
IC50 [2]: Not Active
Ki [2]: Not Active
IC50 (Vasopressin V1a receptor): Not Active
IC50 ([3]; chem-1): Not Active
IC50 ([4]; insect cells): Not Active

N[C@@H](Cc1cc(I)c(Oc2ccc(O)c(I)c2)c(I)c1)C(=O)O [LIOTHYRONINE]
IC50 [1]: Not Active
IC50 (Calcitonin receptor): Not Active
IC50 (Vasopressin V1a receptor): Not Active
IC50 ([3]; chem-1): Not Active
IC50 ([4]; insect cells): Not Active

C[C@@H]1CN(c2c(F)c(N)c3c(=O)c(C(=O)O)cn(C4CC4)c3c2F)C[C@H](C)N1 [SPARFLOXACIN]
IC50 [1]: Not Active
IC50 (Calcitonin receptor): Not Active
IC50 [2]: Not Active
Ki [2]: Not Active
IC50 (Vasopressin V1a receptor): Not Active
IC50 ([3]; chem-1): Not Active
IC50 ([4]; insect cells): Not Active

CC1(C)O[C@@H]2C[C@H]3[C@@H]4CCC5=CC(=O)C=C[C@]5(C)[C@@]4(F)[C@@H](O)C[C@]3(C)[C@]2(C(=O)CO)O1 [TRIAMCINOLONE ACETONIDE]
IC50 [1]: Not Active
IC50 (Calcitonin receptor): Not Active
IC50 [2]: Not Active
Ki [2]: Not Active
IC50 (Vasopressin V1a receptor): Not Active
IC50 ([3]; chem-1): Not Active
IC50 ([4]; insect cells): Not Active
